Marks after values point to notes of the source that are not given here.
Experiments:
[1] = system: Influenza A/Vietnam/1203/2004 (H5N1) virus; design: species or system BALB/c mice; details: mouse, in vivo
[2] = system: influenza H1N1 and Streptococcus pneumoniae; design: species or system mice; details: mouse, in vivo

| SMILES | Hazard Ratio (95% CI) [1] | Live/Total [1] | Mean Day of Death ± SD [1] | Median Survival [1] | survival, H5N1 [1] | rescue from death [2] |
| --- | --- | --- | --- | --- | --- | --- |
| CCOC(=O)C1=C[C@@H](OC(CC)CC)[C@H](NC(C)=O)[C@@H](N)C1 [Oseltamivir, oseltamivir] | 4.8 (1.6-14.3) | 4/7* | 11.3 ± 0.6 | Undefined | 60% |  |
| NC(=O)c1ncn([C@@H]2O[C@H](CO)[C@@H](O)[C@H]2O)n1 [Ribavirin, ribavirin] |  |  |  |  |  | failed to rescue animals from death |

From patent US12024552B2 (priority 2012, dated 2024)
